Series [1] deals with A-431. Description: Antiproliferative activity against human A-431 cells assessed as cell growth inhibition at 25 uM incubated for 72 hrs by MTT assay relative to control. The class given is functional. For orientation: Tetrazolium dyes change colour on reduction, which living cells bring about.
Series [2] deals with A2780. Put plainly: Antiproliferative activity against human A2780 cells assessed as cell growth inhibition at 25 uM incubated for 72 hrs by MTT assay relative to control. The class given is functional.
Series [3] deals with MCF7. Put plainly: Antiproliferative activity against human MCF7 cells assessed as cell growth inhibition at 25 uM incubated for 72 hrs by MTT assay relative to control. Format: functional.
Series [4] is described as follows: Cytotoxicity against human MCF-10A cells assessed as cell growth inhibition at 25 uM incubated for 72 hrs by MTT assay relative to control. Format: toxicity, cell-based.
Series [5] relates to U-87 MG. Put plainly: Antiproliferative activity against human U87 cells assessed as cell growth inhibition at 25 uM incubated for 72 hrs by MTT assay relative to control. The class given is functional, U-87MG ATCC.
Series [6] relates to MIA PaCa-2. Description: Antiproliferative activity against human MIA PaCa-2 cells assessed as cell growth inhibition incubated for 72 hrs by MTT assay. Format: functional.
Series [7] concerns HT-29. Put plainly: Antiproliferative activity against human HT-29 cells assessed as cell growth inhibition at 25 uM incubated for 72 hrs by MTT assay relative to control. Format: functional.
Series [8] concerns NCI-H460. Description: Antiproliferative activity against human NCI-H460 cells assessed as cell growth inhibition at 25 uM incubated for 72 hrs by MTT assay relative to control. Format: functional.
Series [9] in a line: Antiproliferative activity against human SJG2 cells assessed as cell growth inhibition incubated for 72 hrs by MTT assay. Format: functional. The following applies: SJ-G2.
For series [10], the system named is HT-29. Put plainly: Antiproliferative activity against human HT-29 cells assessed as cell growth inhibition incubated for 72 hrs by MTT assay. The class given is functional.
For series [11], the system named is NCI-H460. Put plainly: Antiproliferative activity against human NCI-H460 cells assessed as cell growth inhibition incubated for 72 hrs by MTT assay. Format: functional.
In series [12] the test system is MIA PaCa-2. Description: Antiproliferative activity against human MIA PaCa-2 cells assessed as cell growth inhibition at 25 uM incubated for 72 hrs by MTT assay relative to control. Format: functional.
For series [13], the system named is A-431. Put plainly: Antiproliferative activity against human A-431 cells assessed as cell growth inhibition incubated for 72 hrs by MTT assay. Format: functional.
Series [14] concerns U-87 MG. Put plainly: Antiproliferative activity against human U87 cells assessed as cell growth inhibition incubated for 72 hrs by MTT assay. The class given is functional, U-87MG ATCC.
Series [15] has as its system DU-145. Put plainly: Antiproliferative activity against human DU-145 cells assessed as cell growth inhibition incubated for 72 hrs by MTT assay. The class given is functional.
Series [16] is described as follows: Cytotoxicity against human MCF-10A cells assessed as cell growth inhibition incubated for 72 hrs by MTT assay. The class given is toxicity, cell-based.
The test system of series [17] is BE(2)-C. Description: Antiproliferative activity against human BE2C cells assessed as cell growth inhibition incubated for 72 hrs by MTT assay. The class given is functional.
Series [18] relates to DU-145. Put plainly: Antiproliferative activity against human DU-145 cells assessed as cell growth inhibition at 25 uM incubated for 72 hrs by MTT assay relative to control. The class given is functional.
Series [19] concerns A2780. Description: Antiproliferative activity against human A2780 cells assessed as cell growth inhibition incubated for 72 hrs by MTT assay. Format: functional.
The test system of series [20] is BE(2)-C. Put plainly: Antiproliferative activity against human BE2C cells assessed as cell growth inhibition at 25 uM incubated for 72 hrs by MTT assay relative to control. The class given is functional.
Series [21] deals with MCF7. Description: Antiproliferative activity against human MCF7 cells assessed as cell growth inhibition incubated for 72 hrs by MTT assay. Format: functional.
Series [22] can be described thus: Antiproliferative activity against human SJG2 cells assessed as cell growth inhibition at 25 uM incubated for 72 hrs by MTT assay relative to control. The class given is functional. The settings on record: SJ-G2.

Bounds are passed on as bounds.

Broadly, the inhibition is the share of the control response that was lost under treatment. As usually defined, the GI50 is the concentration giving 50% growth inhibition.

Regarding `O=C1NC(c2ccccc2Br)Nc2ccccc21` (centres undefined), the inhibition at 25 µM in [1] was above 100%; in series [2] it was 96%; in series [3], 82%; in [5], 80%; in series [7] it was above 100%; in [8] it was 95%. Besides, the inhibition at 25 µM was 89% in [12], 100% in series [18], above 100% in [20] and above 100% in series [22]. For the same compound, the inhibition at 72 h, 25 µM in series [4] amounted to 94%. The GI50 in [6] came to 4.2 µM; in series [9] it was 3 µM; in series [10], 2.4 µM; in [11] it was 3.6 µM; in [13] it was 2.3 µM; in [14], 10 µM. Further, the GI50 in [15] amounted to 4.3 µM; in series [17], 2.5 µM; in [19], 2.5 µM; in [21], 3.7 µM. In addition, the GI50 at 72 h in series [16] stood at 4.3 µM.
As for `Cc1ccc(/C=C/c2nc(O)c3ccccc3n2)cc1`, the inhibition at 25 µM was 93% in [1]; 97% in series [2]; above 100% in series [3]; 51% in series [5]; above 100% in series [7]; 69% in series [8]. The inhibition at 25 µM worked out at 85% in series [12], 61% in series [18], 82% in [20] and 57% in series [22]. The inhibition at 72 h, 25 µM in series [4] stood at 86%. Further, the GI50 in series [6] turned out to be 3.3 µM; in series [9] it was 13 µM; in [10] it was 2.1 µM; in series [11], 9.4 µM; in [13], 4 µM; in series [14], 19 µM. Besides, the GI50 came to 7.7 µM in [15], 3.6 µM in series [17], 3.7 µM in series [19] and 1.2 µM in [21]. Also, the GI50 at 72 h in series [16] stood at 3.8 µM.
For `O=C1NC(/C(Br)=C/c2ccccc2)Nc2ccccc21` (centres undefined), the inhibition at 25 µM is above 100% in series [1]; 94% in series [2]; above 100% in [3]; 95% in series [5]; above 100% in [7]; 97% in series [8]. Moreover, the inhibition at 25 µM is 81% in series [12], above 100% in series [18], 87% in series [20] and above 100% in series [22]. In series [4], the inhibition at 72 h, 25 µM was determined as 99%. Also, the GI50 in [6] stood at 12 µM; in [9] it was 12 µM; in [10] it was 2.6 µM; in series [11], 4.7 µM; in series [13], 8.2 µM; in [14] it was 5.7 µM. For the same compound, the GI50 in series [15] was found to be 3.1 µM; in [17], 10 µM; in series [19] it was 5 µM; in series [21], 8.5 µM. The GI50 at 72 h in series [16] was found to be 2.9 µM.
As for `CCCCCCCCC1NC(=O)c2ccccc2N1` (centres undefined), the inhibition at 25 µM in series [1] was 91%; in [2] it was 96%; in [3], above 100%; in series [5], 39%; in series [7], 93%; in [8], 61%. In addition, the inhibition at 25 µM in series [12] stood at 75%; in [18] it was 53%; in [20] it was 85%; in series [22] it was 77%. Moreover, the inhibition at 72 h, 25 µM in series [4] was found to be 80%. The GI50 in series [6] is 12 µM; in [9] it was 13 µM; in [10], 13 µM; in [11] it was 14 µM; in series [13], 7.1 µM; in [14], above 50 µM. The GI50 in [15] was above 50 µM; in series [17] it was 9.2 µM; in series [19], 4.2 µM; in series [21] it was 2.9 µM. Moreover, the GI50 at 72 h in [16] worked out at 11 µM.
Regarding `COc1cccc(C2NC(=O)c3ccccc3N2)c1` (centres undefined), the inhibition at 25 µM was above 100% in series [1]; 100% in [2]; 85% in series [3]; 99% in series [5]; above 100% in series [7]; 100% in series [8]. In addition, the inhibition at 25 µM is 94% in series [12], above 100% in series [18], above 100% in [20] and above 100% in series [22]. In series [4], the inhibition at 72 h, 25 µM was above 100%. Also, the GI50 in series [6] is 4.1 µM; in [9] it was 3.3 µM; in series [10], 1.7 µM; in series [11] it was 3.3 µM; in series [13] it was 2.1 µM; in series [14], 2.7 µM. Besides, the GI50 in series [15] stood at 2.3 µM; in series [17], 2.3 µM; in [19] it was 2.6 µM; in [21], 5.8 µM. For the same compound, the GI50 at 72 h in [16] worked out at 3.2 µM.
As to `O=C1NC(C2CC=CCC2)Nc2ccccc21` (centres undefined), the inhibition at 25 µM in series [1] was above 100%; in series [2] it was 99%; in [3], 72%; in series [5], 67%; in [7], above 100%; in series [8] it was 91%. For the same compound, the inhibition at 25 µM stood at 82% in [12], 67% in series [18], 97% in series [20] and 87% in series [22]. Moreover, the inhibition at 72 h, 25 µM in series [4] stood at 89%. For the same compound, the GI50 in series [6] turned out to be 12 µM; in [9], 17 µM; in series [10] it was 5.4 µM; in series [11], 11 µM; in series [13], 3.8 µM; in series [14], 17 µM. In addition, the GI50 in [15] is 19 µM; in series [17] it was 5.7 µM; in [19], 3.9 µM; in [21], 15 µM. The GI50 at 72 h in series [16] was 11 µM.
Regarding `N#Cc1ccc2[nH]cc(-c3nc4ccccc4c(=O)[nH]3)c2c1`, the GI50 in series [6] is 3.5 µM; in series [9] it was 2.8 µM; in series [10] it was 3.9 µM; in series [11], 2.5 µM; in [13], 4.9 µM; in series [14], 3.2 µM. In addition, the GI50 was found to be 2.8 µM in series [15], 3.4 µM in series [17], 2.7 µM in [19] and 2.7 µM in series [21]. Besides, in [16], the GI50 at 72 h was 3.5 µM.
As for `O=C1NC(C2CCCCC2)Nc2ccccc21` (centres undefined), the inhibition at 25 µM was 22% in series [1]; 41% in series [2]; 18% in series [3]; 10% in [5]; 23% in [7]; below 10% in series [8]. Moreover, the inhibition at 25 µM is 12% in series [12], 18% in series [18], 32% in [20] and below 10% in series [22]. In series [4], the inhibition at 72 h, 25 µM is 8%.
